Consider 26 molecules from patent US10988477B2 (Merck Patent GmbH, priority 2018, dated 2021).

Sequence of GCN2 kinase (Q9P2K8 whole entry): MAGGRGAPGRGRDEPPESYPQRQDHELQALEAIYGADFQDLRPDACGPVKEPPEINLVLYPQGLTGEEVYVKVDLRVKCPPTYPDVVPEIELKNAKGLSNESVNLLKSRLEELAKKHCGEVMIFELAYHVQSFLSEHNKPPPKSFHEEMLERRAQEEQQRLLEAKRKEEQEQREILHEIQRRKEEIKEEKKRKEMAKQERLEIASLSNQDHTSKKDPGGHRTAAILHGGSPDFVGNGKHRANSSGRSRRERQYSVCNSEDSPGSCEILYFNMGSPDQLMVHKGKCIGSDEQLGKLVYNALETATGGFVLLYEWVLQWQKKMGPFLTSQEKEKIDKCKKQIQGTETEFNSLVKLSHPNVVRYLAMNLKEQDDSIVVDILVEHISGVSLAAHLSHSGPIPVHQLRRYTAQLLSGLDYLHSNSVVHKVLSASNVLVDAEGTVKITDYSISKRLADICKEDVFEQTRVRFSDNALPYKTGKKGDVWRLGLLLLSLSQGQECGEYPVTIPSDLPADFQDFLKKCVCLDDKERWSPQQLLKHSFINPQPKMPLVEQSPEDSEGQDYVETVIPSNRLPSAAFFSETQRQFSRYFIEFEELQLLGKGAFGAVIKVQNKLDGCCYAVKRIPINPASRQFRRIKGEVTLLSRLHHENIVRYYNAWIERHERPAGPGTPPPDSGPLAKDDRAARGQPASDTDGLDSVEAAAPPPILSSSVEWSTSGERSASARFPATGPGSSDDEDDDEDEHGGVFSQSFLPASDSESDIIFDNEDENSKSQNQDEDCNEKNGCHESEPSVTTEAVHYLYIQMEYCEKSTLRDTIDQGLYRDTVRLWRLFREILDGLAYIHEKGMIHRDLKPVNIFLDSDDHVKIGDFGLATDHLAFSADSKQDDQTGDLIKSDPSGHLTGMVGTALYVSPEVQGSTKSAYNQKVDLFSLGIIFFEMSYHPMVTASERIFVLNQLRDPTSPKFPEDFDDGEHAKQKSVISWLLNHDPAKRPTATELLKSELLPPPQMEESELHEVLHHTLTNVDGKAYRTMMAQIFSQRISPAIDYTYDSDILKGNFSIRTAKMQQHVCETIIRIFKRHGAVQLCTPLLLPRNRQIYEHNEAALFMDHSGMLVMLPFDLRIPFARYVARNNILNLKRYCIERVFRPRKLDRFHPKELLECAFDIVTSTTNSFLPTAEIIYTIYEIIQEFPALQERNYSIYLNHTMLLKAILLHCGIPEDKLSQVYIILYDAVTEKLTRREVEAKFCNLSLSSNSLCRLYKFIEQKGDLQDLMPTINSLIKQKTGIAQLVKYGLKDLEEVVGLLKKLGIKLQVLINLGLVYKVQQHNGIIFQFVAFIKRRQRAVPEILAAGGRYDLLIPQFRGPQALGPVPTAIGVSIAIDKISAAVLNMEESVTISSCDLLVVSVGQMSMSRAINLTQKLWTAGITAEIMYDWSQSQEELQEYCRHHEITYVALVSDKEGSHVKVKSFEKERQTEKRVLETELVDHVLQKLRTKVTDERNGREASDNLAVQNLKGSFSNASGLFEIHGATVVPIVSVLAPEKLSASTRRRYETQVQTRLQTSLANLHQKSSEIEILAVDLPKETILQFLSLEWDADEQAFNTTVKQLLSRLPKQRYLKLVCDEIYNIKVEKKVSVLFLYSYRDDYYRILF

For the first assay, the target named is GCN2 kinase (Homo sapiens, UniProt Q9P2K8). Put plainly: GCN2 enzyme inhibition assay (Transcreener ADP2 fluorescence polarization). The format is biochemical. Conditions: Enzyme activity for compounds of Formula IV; Ki(app), 280 μM ATP, 25° C. The method in brief:
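ADP formation read by Transcreener FP after a 1 h, 25 °C kinase reaction containing 280 μM ATP, 200 μM (RS)7 substrate and 4 nM GCN2, pH 7.5 Tris buffer. Compounds (0–8 μM final) were added 10 min before ATP. Percent inhibition gave IC50 and apparent Ki via tight-binding fit.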
For orientation: Fluorescence polarisation rises when a labelled molecule tumbles more slowly, as on binding a larger partner.
Take `Cn1nc(C2CCCN(c3ccnc(-c4cnc5cnc(C(F)(F)F)cn45)n3)C2)cc1CCO` (centres unmarked) [IV-662, 2-(1-Methyl-3-(1-(2-(6-(trifluoromethyl)imidazo[1,2-a]pyrazin-3-yl)pyrimidin-4-yl)piperidin-3-yl)-1H-pyrazol-5-yl)ethan-1-ol]: the Ki lay within 100 to 1000 nM.

`CC(C)(C)n1cc(C(=O)N[C@H]2CCCN(c3ccnc(-c4cnc5cnc(C(F)(F)F)cn45)n3)C2)nn1` [IV-750] registered a Ki greater than 1000 nM.

Turning to `C[C@H]1NCCN(c2ccnc(-c3cnc4cnc(C5CC5)cn34)n2)[C@H]1c1cn[nH]c1` (relative stereo) [IV-412, Cis-6-Cyclopropyl-3-(4-(3-methyl-2-(1H-pyrazol-4-yl)piperazin-1-yl)pyrimidin-2-yl)imidazo[1,2-a]pyrazine], the Ki lay in the range of 100 to 1000 nM.

Consider `O=C1CC2(CCN(c3ccnc(-c4cnc5cnc(C(F)(F)F)cn45)n3)C2)CN1` (centres unmarked) [IV-534, 7-(2-(6-(Trifluoromethyl)imidazo[1,2-a]pyrazin-3-yl)pyrimidin-4-yl)-2,7-diazaspiro[4.4]nonan-3-one], for which the Ki is 100 to 1000 nM.

As for `FC(F)(F)c1cn2c(-c3nccc(N4CCNC(c5cn[nH]c5)C4)n3)cnc2cn1` (single isomer, unassigned) [IV-232, 3-(4-(3-(1H-Pyrazol-4-yl)piperazin-1-yl)pyrimidin-2-yl)-6-(trifluoromethyl)imidazo[1,2-a]pyrazine], the Ki lay within 10 to 100 nM.

The molecule `COCCn1ccc(C(=O)N[C@H]2CCCN(c3ccnc(-c4cnc5cnc(C(F)(F)F)cn45)n3)C2)n1` [IV-745] registered a Ki greater than 1000 nM.

`CC1CN(c2ccnc(-c3cnc4cnc(C(F)(F)F)cn34)n2)C(C)C(c2cn[nH]c2)N1` (single isomer, unassigned) [IV-223, 3-(4-(2,5-Dimethyl-3-(1H-pyrazol-4-yl)piperazin-1-yl)pyrimidin-2-yl)-6-(trifluoromethyl)imidazo[1,2-a]pyrazine]: the Ki lay within 100 to 1000 nM.

On to `FC(F)c1cn2c(-c3nccc(C4=CCCC4)n3)cnc2cn1` [IV-163, 3-(4-(Cyclopent-1-en-1-yl)pyrimidin-2-yl)-6-(difluoromethyl)imidazo[1,2-a]pyrazine], for which the Ki was in the range of 100 to 1000 nM.

`OCC1CCN(c2ccnc(-c3cnc4cnc(C(F)(F)F)cn34)n2)C1` (centres unmarked) [IV-434, (1-(2-(6-(Trifluoromethyl)imidazo[1,2-a]pyrazin-3-yl)pyrimidin-4-yl)pyrrolidin-3-yl)methanol] displayed a Ki of 100 to 1000 nM.

On to `O=C(N[C@H]1CCCN(c2ccnc(-c3cnc4cnc(C(F)(F)F)cn34)n2)C1)c1c[nH]cn1` [IV-751], for which the Ki was greater than 1000 nM.

`C[C@H]1CN(c2ccnc(-c3cnc4cnc(C(F)(F)F)cn34)n2)C[C@@H](c2nc(C3CC3)no2)O1` [IV-718] displayed a Ki of 100 to 1000 nM.

With `FC(F)(F)c1cn2c(-c3nccc(-n4ccc(C5CCCNC5)n4)n3)cnc2cn1` (centres unmarked) [IV-634, 3-(4-(3-(Piperidin-3-yl)-1H-pyrazol-1-yl)pyrimidin-2-yl)-6-(trifluoromethyl)imidazo[1,2-a]pyrazine], the Ki is 100 to 1000 nM.

`CC1CN(c2nc(-c3cnc4cnc(C(F)(F)F)cn34)ncc2F)CC(c2cn[nH]c2)O1` (single isomer, unassigned) [IV-335, 4-(5-Fluoro-2-(6-(trifluoromethyl)imidazo[1,2-a]pyrazin-3-yl)pyrimidin-4-yl)-2-methyl-6-(1H-pyrazol-4-yl)morpholine] showed a Ki of 10 to 100 nM.

`COCC1CN(c2ccnc(-c3cnc4cnc(C(F)(F)F)cn34)n2)CCO1` (centres unmarked) [IV-588, 2-(Methoxymethyl)-4-(2-(6-(trifluoromethyl)imidazo[1,2-a]pyrazin-3-yl)pyrimidin-4-yl)morpholine] showed a Ki of 100 to 1000 nM.

As for `FC(F)(F)c1cn2c(-c3nccc(N4CCC(C5CCCC5)C4)n3)cnc2cn1` (centres unmarked) [IV-644, 3-(4-(3-Cyclopentylpyrrolidin-1-yl)pyrimidin-2-yl)-6-(trifluoromethyl)imidazo[1,2-a]pyrazine], the Ki is 100 to 1000 nM.

Staying with this assay, now noted: compounds of Formula II; 280 μM ATP, 4 nM GCN2 kinase.
The molecule `CC(C)C(C)(O)C1CCCN(c2cc(-c3cnc4ccc(C(F)F)nn34)ncn2)C1` (centres unmarked) [II-622, 2-(1-(6-(6-(Difluoromethyl)imidazo[1,2-b]pyridazin-3-yl)pyrimidin-4-yl)piperidin-3-yl)-3-methylbutan-2-ol] returned a Ki of 10 to 1000 nM.

For the molecule `CC1CC(N=S(C)(=O)C2CC2)CN(c2cc(-c3cnc4ccc(C(F)F)nn34)ncn2)C1` (single isomer, unassigned) [II-647, Cyclopropyl((1-(6-(6-(difluoromethyl)imidazo[1,2-b]pyridazin-3-yl)pyrimidin-4-yl)-5-methylpiperidin-3-yl)imino)(methyl)-λ^6-sulfanone], the Ki fell in the range of 10 to 1000 nM.

For `CC1CC(C(N)=O)C(C)N(c2cc(-c3cnc4ccc(C(F)(F)F)nn34)ncn2)C1` (single isomer, unassigned) [II-718, 2,5-Dimethyl-1-[6-[6-(trifluoromethyl)imidazo[1,2-b]pyridazin-3-yl]pyrimidin-4-yl]piperidine-3-carboxamide], the Ki lay in the range of 10 to 1000 nM.

`CC(NS(C)(=O)=O)C1CCCN(c2cc(-c3cnc4ccc(C(F)F)nn34)ncn2)C1` (centres unmarked) [II-619, N-(1-(1-(6-(6-(Difluoromethyl)imidazo[1,2-b]pyridazin-3-yl)pyrimidin-4-yl)piperidin-3-yl)ethyl)methanesulfonamide] came in with a Ki of 10 to 1000 nM.

With `CS(=O)(=O)C1CCCN(c2cc(-c3cnc4ccc(C(F)F)nn34)ncn2)C1` (single isomer, unassigned) [II-530, 6-(Difluoromethyl)-3-(6-(3-(methylsulfonyl)piperidin-1-yl)pyrimidin-4-yl)imidazo[1,2-b]pyridazine], the Ki fell in the range of 10 to 1000 nM.

In the case of `CC1CC(N=S(C)(C)=O)CN(c2cc(-c3cnc4ccc(C(F)F)nn34)c(F)cn2)C1` (single isomer, unassigned) [II-722, ((1-(4-(6-(Difluoromethyl)imidazo[1,2-b]pyridazin-3-yl)-5-fluoropyridin-2-yl)-5-methylpiperidin-3-yl)imino)dimethyl-λ^6-sulfanone], the Ki was 10 to 1000 nM.

As for `CC1C(CNS(C)(=O)=O)N(C(C)(C)C)CCN1c1cc(-c2cnc3ccc(C(F)F)nn23)ncn1` (centres unmarked) [II-559, N-((1-(tert-Butyl)-4-(6-(6-(difluoromethyl)imidazo[1,2-b]pyridazin-3-yl)pyrimidin-4-yl)-3-methylpiperazin-2-yl)methyl)methanesulfonamide], the Ki lay within 10 to 1000 nM.

`CS(=O)(=O)NCC1CC(C#N)CN(c2cc(-c3cnc4ccc(C(F)F)nn34)ncn2)C1` (centres unmarked): the Ki lay in the range of 10 to 1000 nM.

On to `N#CC1CN(c2cc(-c3cnc4ccc(C(F)(F)F)nn34)ncn2)CCO1` (centres unmarked) [II-533, 4-(6-(6-(Trifluoromethyl)imidazo[1,2-b]pyridazin-3-yl)pyrimidin-4-yl)morpholine-2-carbonitrile], for which the Ki is 10 to 1000 nM.

The assay is the same for the next values; noted with them: compounds of Formula IV; 280 μM ATP, 4 nM GCN2 kinase.
The term IC50 denotes the concentration that gives 50% inhibition. Low values mean greater potency in that assay, high ones weaker potency in that assay. For the molecule `C[C@H]1[C@@H](c2cn[nH]c2)N(C(=O)c2cnoc2)[C@@H](C)CN1c1ccnc(-c2cnc3cnc(C(F)(F)F)cn23)n1` [IV-779, ((2R,3S,6S)-3,6-dimethyl-2-(1H-pyrazol-4-yl)-4-(2-(6-(trifluoromethyl)imidazo[1,2-a]pyrazin-3-yl)pyrimidin-4-yl)piperazin-1-yl)(isoxazol-4-yl)methanone], the IC50 lay in the range of 10 to 1000 nM.

As to `Cc1n[nH]cc1[C@H]1CN(c2ccnc(-c3cnc4cnc(C(F)(F)F)cn34)n2)C[C@@H](C)O1` (stereo in doubt) [IV-762, (2R,6S)-2-methyl-6-(3-methyl-1H-pyrazol-4-yl)-4-(2-(6-(trifluoromethyl)imidazo[1,2-a]pyrazin-3-yl)pyrimidin-4-yl)morpholine], the IC50 was 10 to 1000 nM.
